Test results taken from PMC8956739, “A synthetic lipopeptide targeting top-priority multidrug-resistant Gram-negative pathogens” (Nature Communications, 2022).
Where “and” joins values, the source holds several entries; their conditions need not be identical. Equal entries are not always repeated. Residues, ends and D or L forms follow the SMILES beside them.

What was measured:
A. baumannii AB5075 [1] = test: Transcriptomic analysis (RNA-Seq) of bacteria; type: cell-based, Acinetobacter baumannii
Experimental: Mid-log phase A. baumannii AB5075 (~10^8 CFU/mL) in CaMHB was treated with colistin (2 and 8 μg/mL), F287, F319 or F365 (equimolar concentration to colistin) for 1 and 4 h. Total RNA was extracted using TRIzol Reagent (Invitrogen, USA) and RNeasy Mini Kit (Qiagen, Germany). Quality check of RNA samples was conducted with NanoDrop (Thermo Fisher Scientific, USA) and Agilent 2100 Bioanalyzer (Agilent Technologies, USA) for sequencing (150 bp paired-end) at Genewiz (Shanghai, China). Raw reads were aligned to A. baumannii AB5075 genome (GCF_000963815, https://www.ncbi.nlm.nih.gov/assembly/GCF_000963815.1/) using subread-aligner (subread 2.0.1) and summarized by featureCounts (subread 2.0.1). Principal component analysis (PCA) was conducted with mixOmics 6.14.1 in R. Differentially expressed genes were determined using limma 3.46.0 with a combination of fold change ≥ 2 and false discovery rate (FDR, by Benjamini–Hochberg algorithm) adjusted P-value ≤ 0.05 (n = 3). Enrichment analysis of gene differential expression in AB5075 was conducted using BioCyc (A. baumannii AB5075, version 25.5). UpSetR 1.4.0, ComplexHeatmap 2.6.2 and circlize 0.4.13 were used for data visualization. Raw data were deposited in Short Reads Archive (SRA) database under accession numbers SRR15235669-SRR15235725.

P. aeruginosa ATCC 27853 = test: Neutropenic mouse bloodstream infection model; type: in vivo; details: single IV dose 4 mg/kg
Procedure, shortened: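 Female Swiss mice made neutropenic with cyclophosphamide (150 mg/kg day −4, 100 mg/kg day −1), infected IV with 50 µL of 4 × 10^8 CFU/mL. Lipopeptide 4 mg/kg (free base) IV at 2 h post-inoculation, n = 3. Efficacy = Δlog10 CFU/mL blood versus saline at 4 h post-dose.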

A. baumannii AB5075 [2] = test: In vitro passaging, emergence of resistance; type: cell-based, Acinetobacter baumannii; details: for OD600: 8 ug/mL
Experimental: Log-phase cultures (OD600 = 0.5, ~10^8 CFU/mL) of A. baumannii AB5075 were inoculated (1:10, v/v) in 200 μL fresh CaMHB (cation-adjusted Mueller–Hinton broth) containing 2, 8 and 16 μg/mL polymyxin B, colistin, F287, and F365 in a 96-well microplate with 4 biological replicates. The cultures were incubated at 37 °C for 12 h before the next dilution (1:10, v/v) with fresh CaMHB. Successive subculturing was conducted for 7 days.

[3] = L vs Cont, 4h, RNA-Seq A. baumannii AB5075
[4] = L vs Cont, 4h, pathway Fatty Acid and Lipid Degradation
[5] = L, 4h vs 1h, RNA-Seq A. baumannii AB5075

Compound: CCCCCCCC(=O)N[C@@H](CCN)C(=O)N[C@H](C(=O)N[C@@H](CN)C(=O)N[C@H]1CCNC(=O)[C@H]([C@@H](C)O)NC(=O)[C@H](CCN)NC(=O)[C@H](CCN)NC(=O)[C@H](CC)NC(=O)[C@@H](CC(C)C)NC(=O)[C@H](CCN)NC1=O)[C@@H](C)O [Lipopeptide F287] (HELM PEPTIDE1{[CCCCCCCC(=O)[*:2]].[Dab].T.[NC[C@H](N[*:1])C(=O)[*:2]].[Dab].[Dab].[dL].[Abu].[Dab].[Dab].T}$PEPTIDE1,PEPTIDE1,5:R3-11:R2$$$V2.0)
- logFC (Differential gene expression for all genes), Geneid ABUW_RS00005 (A. baumannii AB5075 [1]; [3]): 0.1326
- logFC (Differential gene expression for all genes), Geneid ABUW_RS00020 (A. baumannii AB5075 [1]; [3]): -0.2281
- logFC (Fold change), gene ABUW_RS00010 (A. baumannii AB5075 [1]; [3]): 0.09364
- logFC (Fold change), gene ABUW_RS00030 (A. baumannii AB5075 [1]; [3]): 0.3636
- logFC (Fold change), gene ABUW_RS00035 (A. baumannii AB5075 [1]; [3]): 0.2169
- logFC (Fold change), gene recF (ABUW_RS00015) (A. baumannii AB5075 [1]; [3]): 0.1608
- log2FC, gene ABUW_RS01945 (acyl-CoA thioesterase II) (A. baumannii AB5075 [1]; [4]): -0.1224
- log2FC, gene ABUW_RS02545 (acyl-CoA thioesterase) (A. baumannii AB5075 [1]; [4]): -0.4528
- log2FC, gene ABUW_RS05045 (acyl-CoA thioesterase) (A. baumannii AB5075 [1]; [4]): 0.3557
- log2FC, gene ABUW_RS17575 (acyl-CoA thioesterase) (A. baumannii AB5075 [1]; [4]): -0.4747
- 4h_1h logFC (Differential gene expression for all genes), Geneid ABUW_RS00005 (A. baumannii AB5075 [1]; [5]): -0.01752
- 4h_1h logFC (Differential gene expression for all genes), Geneid ABUW_RS00010 (A. baumannii AB5075 [1]; [5]): -0.721
- 4h_1h logFC (Differential gene expression for all genes), Geneid ABUW_RS00015 (A. baumannii AB5075 [1]; [5]): 0.1845
- 4h_1h logFC (Differential gene expression for all genes), Geneid ABUW_RS00020 (A. baumannii AB5075 [1]; [5]): -0.0476
- Log10 CFU/mL blood at 4 h, Mean (P. aeruginosa ATCC 27853; 4 h): 5.02 Log10 CFU/mL blood
- Δlog10 CFU/mL blood (mean) (P. aeruginosa ATCC 27853; 4 h, treated minus control, mean of replicates, 4 mg/kg): −2.42 log10 CFU/mL blood
- Log10 CFU/mL blood at 4 h, single mouse (P. aeruginosa ATCC 27853; 4 h, 4 mg/kg): 5.21 Log10 CFU/mL blood and 4.68 Log10 CFU/mL blood and 5.18 Log10 CFU/mL blood
- Delta Log10 CFU/mL blood at 4 h, single mouse (P. aeruginosa ATCC 27853; treated mouse minus mean of vehicle mice, 4 mg/kg): -2.23 Log10 CFU/mL blood and -2.77 Log10 CFU/mL blood and -2.27 Log10 CFU/mL blood
- OD600 (A. baumannii AB5075 [2]; time 0 h, passage 0, replicates rep1-rep4, raw OD600 (blank OD600 0.125333)): 0.15 and 0.135 and 0.14
- OD600 (A. baumannii AB5075 [2]; time 12 h, passage 1, replicates rep1-rep4, raw OD600 (blank OD600 0.114667)): 0.134 and 0.126 and 0.13 and 0.129
- OD600 (A. baumannii AB5075 [2]; time 24 h, passage 2, replicates rep1-rep4, raw OD600 (blank OD600 0.0956667)): 0.091 and 0.089 and 0.086
- OD600 (A. baumannii AB5075 [2]; time 36 h, passage 3, replicates rep1-rep4, raw OD600 (blank OD600 0.088)): 0.088 and 0.089 and 0.095
- OD600 (A. baumannii AB5075 [2]; time 48 h, passage 4, replicates rep1-rep4, raw OD600 (blank OD600 0.104667)): 0.095 and 0.092 and 0.093 and 0.111
- OD600 (A. baumannii AB5075 [2]; time 60 h, passage 5, replicates rep1-rep4, raw OD600 (blank OD600 0.122333)): 0.105 and 0.107 and 0.117
- OD600 (A. baumannii AB5075 [2]; time 72 h, passage 6, replicates rep1-rep4, raw OD600 (blank OD600 0.095)): 0.097 and 0.09 and 0.087
- OD600 (A. baumannii AB5075 [2]; time 84 h, passage 7, replicates rep1-rep4, raw OD600 (blank OD600 0.091)): 0.094 and 0.097 and 0.099 and 0.113
- OD600 (A. baumannii AB5075 [2]; time 96 h, passage 8, replicates rep1-rep4, raw OD600 (blank OD600 0.0953333)): 0.111 and 0.113 and 0.11 and 0.117
- OD600 (A. baumannii AB5075 [2]; time 108 h, passage 9, replicates rep1-rep4, raw OD600 (blank OD600 0.100667)): 0.115 and 0.107 and 0.116
- OD600 (A. baumannii AB5075 [2]; time 120 h, passage 10, replicates rep1-rep4, raw OD600 (blank OD600 0.0983333)): 0.108 and 0.113 and 0.118
- OD600 (A. baumannii AB5075 [2]; time 132 h, passage 11, replicates rep1-rep4, raw OD600 (blank OD600 0.0843333)): 0.121 and 0.108 and 0.118 and 0.122
- OD600 (A. baumannii AB5075 [2]; time 144 h, passage 12, replicates rep1-rep4, raw OD600 (blank OD600 0.091)): 0.116 and 0.114 and 0.12
- OD600 (A. baumannii AB5075 [2]; time 156 h, passage 13, replicates rep1-rep4, raw OD600 (blank OD600 0.129)): 0.118 and 0.12 and 0.113 and 0.116
- OD600 (A. baumannii AB5075 [2]; time 168 h, passage 14, replicates rep1-rep4, raw OD600 (blank OD600 0.101)): 0.096 and 0.095 and 0.092 and 0.117
- time to emergence of resistance (A. baumannii AB5075 [2]; 4× MIC, 7-day passaging): ≤ 3 days
- growth over 7 days (A. baumannii AB5075 [2]; 32× MIC): No growth
